Results reported in ChEMBL document CHEMBL1156898, “Synthesis, photophysical properties and photocytotoxicity of mono-, di-, tri- and tetra-glucosylated fluorophenylporphyrins” (Bioorg Med Chem, 2010).
The source made the active and inactive calls. The rule behind the calls is not given here.

How the values were obtained:
HeLa [1] = assay: Drug uptake in human HeLa cells at 80 nM after 24 hrs relative to TPPS; assay type: ADME, cell-based; details: 0.08 µM
HeLa [2] = assay: Cytotoxicity against human HeLa cells assessed as cell survival in dark at 100 nM after 24 hrs by WST8 assay; assay type: functional, cell-based
HeLa [3] = assay: Phototoxicity against human HeLa cells irradiated with 16Jcm'-2 from halogen lamp assessed as cell survival at 100 nM after 24 hrs by WST8 assay; assay type: functional, cell-based; details: light or radiation study
[4] = Lipophilicity, log P of the compound; assay type: physicochemical; details: octanol/water
HeLa [5] = assay: Phototoxicity in human HeLa cells assessed as induction of apoptotic bodies at 500 nM after 3 hrs using DAPI staining by confocal laser scanning microscopy; assay type: functional, cell-based
HeLa [6] = assay: Phototoxicity in human HeLa cells assessed as induction of cell shrinkage at 500 nM after 3 hrs using DAPI staining by confocal laser scanning microscopy; assay type: functional, cell-based

Question: Which Activity (HeLa [1]) does the source give for OC[C@H]1O[C@@H](Sc2c(F)c(F)c(-c3c4nc(c(-c5c(F)c(F)c(S[C@@H]6O[C@H](CO)[C@@H](O)[C@H](O)[C@H]6O)c(F)c5F)c5ccc([nH]5)c(-c5c(F)c(F)c(S[C@@H]6O[C@H](CO)[C@@H](O)[C@H](O)[C@H]6O)c(F)c5F)c5nc(c(-c6c(F)c(F)c(F)c(F)c6F)c6ccc3[nH]6)C=C5)C=C4)c(F)c2F)[C@H](O)[C@@H](O)[C@@H]1O here?
Answer: Active

Question: And the Activity (HeLa [2])?
Answer: Not toxic

Question: And the % survival (HeLa [3])?
Answer: 80%

Question: And the logP [4]?
Answer: 2.99

Question: Which Activity (HeLa [1]) does the source give for OC[C@H]1O[C@@H](Sc2c(F)c(F)c(-c3c4nc(c(-c5c(F)c(F)c(S[C@@H]6O[C@H](CO)[C@@H](O)[C@H](O)[C@H]6O)c(F)c5F)c5ccc([nH]5)c(-c5c(F)c(F)c(F)c(F)c5F)c5nc(c(-c6c(F)c(F)c(F)c(F)c6F)c6ccc3[nH]6)C=C5)C=C4)c(F)c2F)[C@H](O)[C@@H](O)[C@@H]1O here?
Answer: Active

Question: What about the Activity (HeLa [2]) of the same molecule?
Answer: Not toxic

Question: And the % survival (HeLa [3])?
Answer: 90%

Question: And the logP [4]?
Answer: 3.98

Question: What does the source list for OC[C@H]1O[C@@H](Sc2c(F)c(F)c(-c3c4nc(c(-c5c(F)c(F)c(S[C@@H]6O[C@H](CO)[C@@H](O)[C@H](O)[C@H]6O)c(F)c5F)c5ccc([nH]5)c(-c5c(F)c(F)c(S[C@@H]6O[C@H](CO)[C@@H](O)[C@H](O)[C@H]6O)c(F)c5F)c5nc(c(-c6c(F)c(F)c(S[C@@H]7O[C@H](CO)[C@@H](O)[C@H](O)[C@H]7O)c(F)c6F)c6ccc3[nH]6)C=C5)C=C4)c(F)c2F)[C@H](O)[C@@H](O)[C@@H]1O?
Answer: Activity (HeLa [1]): Active; Activity (HeLa [2]): Not toxic; % survival (HeLa [3]): 90%; logP [4]: 0.75

Question: With OC[C@H]1O[C@@H](Sc2c(F)c(F)c(-c3c4nc(c(-c5c(F)c(F)c(F)c(F)c5F)c5ccc([nH]5)c(-c5c(F)c(F)c(S[C@@H]6O[C@H](CO)[C@@H](O)[C@H](O)[C@H]6O)c(F)c5F)c5nc(c(-c6c(F)c(F)c(F)c(F)c6F)c6ccc3[nH]6)C=C5)C=C4)c(F)c2F)[C@H](O)[C@@H](O)[C@@H]1O as the molecule, how does the Activity (HeLa [1]) read?
Answer: Active

Question: And the Activity (HeLa [2])?
Answer: Not toxic

Question: And the Activity (HeLa [5])?
Answer: Active

Question: What about the Activity (HeLa [6]) of the same molecule?
Answer: Active

Question: And the % survival (HeLa [3])?
Answer: < 5%

Question: And the logP [4]?
Answer: 3.53

Question: With OC[C@H]1O[C@@H](Sc2c(F)c(F)c(-c3c4nc(c(-c5c(F)c(F)c(F)c(F)c5F)c5ccc([nH]5)c(-c5c(F)c(F)c(F)c(F)c5F)c5nc(c(-c6c(F)c(F)c(F)c(F)c6F)c6ccc3[nH]6)C=C5)C=C4)c(F)c2F)[C@H](O)[C@@H](O)[C@@H]1O as the molecule, how does the Activity (HeLa [1]) read?
Answer: Active

Question: What about the Activity (HeLa [2]) of the same molecule?
Answer: Not toxic

Question: And the % survival (HeLa [3])?
Answer: 90%

Question: What about the logP [4] of the same molecule?
Answer: 5.11
